Our source for the ADRB2 agonist activity and ADRB2 antagonist activity values is paper PMC3094066 (Molecular Systems Biology, 2011).

This assay has as its target human ADRB2 (Homo sapiens, UniProt P07550). The experiment in a line: Calcium mobilization assay. Format: cell-based. The conditions noted are these: in words; for ADRB2 antagonist activity: Figure 4B.

SMILES strings stand for the structures.

Sequence of human ADRB2 (P07550 whole entry): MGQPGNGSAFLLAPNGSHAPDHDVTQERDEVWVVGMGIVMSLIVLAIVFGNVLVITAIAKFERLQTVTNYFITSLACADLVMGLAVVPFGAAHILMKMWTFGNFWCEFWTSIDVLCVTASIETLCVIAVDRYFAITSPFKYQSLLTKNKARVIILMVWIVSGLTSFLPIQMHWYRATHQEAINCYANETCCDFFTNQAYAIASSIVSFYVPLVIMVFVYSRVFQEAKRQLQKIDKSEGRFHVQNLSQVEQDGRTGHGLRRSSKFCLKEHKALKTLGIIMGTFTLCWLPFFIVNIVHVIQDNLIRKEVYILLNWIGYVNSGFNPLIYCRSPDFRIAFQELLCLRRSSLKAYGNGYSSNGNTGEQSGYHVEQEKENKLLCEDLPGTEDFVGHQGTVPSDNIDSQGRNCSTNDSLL

As for `Cc1ccc(-n2c(C)ccc2C)c2c1CC(C)(C)O2` [Compound 5, 2,5-Dimethyl-1-(2,2,4-trimethyl-2,3-dihydro-1-benzofuran-7-yl)-1H-pyrrole], for the setting “Figure 4A”, the ADRB2 agonist activity entry is recorded as “weak ADRB2 agonist activity”.

Turning to `Cc1cc2c(OCC(O)CNC(C)(C)C)cccc2[nH]1` (stereo not drawn) [Compound 8, 1-(tert-butylamino)-3-[(2-methyl-1H-indol-4-yl)oxy]-2-propanol, reference compound], the ADRB2 antagonist activity result is reported as “strong ADRB2 antagonist activity”.

As for `COCCCNCC(O)COc1cccc2[nH]c(C)cc12` (stereo not drawn) [Compound 33, 1-[(3-Methoxypropyl)amino]-3-[(2-methyl-1H-indol-4-yl)oxy]-2-propanol], the ADRB2 antagonist activity entry was “strong ADRB2 antagonist activity”.
